From patent publication US7582678B2, “Use of branched-chain fatty acids and derivatives thereof for the treatment of pain” (D-PHARM Limited, priority 1998, dated 2009)

What was measured:
Male CD-1 mice = assay: Tail flick assay (radiated heat, acute pain) in mice;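 also: infrared heat aimed at the tail of restrained mice, time until tail flick recorded as mean of 2-3 readings, 4-8 animals per group, compared with vehicle-treated animals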
Method: The analgesic effect of branched-chain fatty acids (BFAs) and their DP-BFAs derivatives was tested by using the tail flick assay in mice.
This model uses radiated infrared (IR) heat source that is directed to the tail of a restrained mouse. The threshold of tolerance for heat is indicated by a time-meter, which is stopped instantaneously when the tail flicks. This time is defined as ‘withdrawal latency’.
Male CD-1 mice weighing around 25-30 grams (4-8 animals per each dose of the tested compound) were used. The animals were put in clear plastic cages above an IR source (7371-Plantar™ Analgesia Instrument, UGO Basile), where the IR generator is placed directly underneath the tail of the mouse and the light beam is focused on the proximal third of the tail.
The withdrawal latency, namely the time interval from the starting of the infrared radiation until the animal feels pain and flicks its tail is determined. The initial withdrawal latency for each animal was measured at t=0 and was determined as its baseline threshold.
In order to determine the analgesic effect of a tested drug, the drug (10 to 200 mg/kg body weight) was administered to mice either orally (p.o.) or by intraperitoneal (i.p.) or subcutaneous (s.c.) injection. Withdrawal latency was determined at different time points post-administration of the drug as indicated. Each reading was performed 2-3 times and the mean-value was calculated. […] The withdrawal latency at each time point post injection is the average of 4-8 animals per group. […] Paired T-test was used to assess significance in comparison to the baseline value (t=0). Morphine was used as a positive control (2 animals per dose).

CD-1 mice = details: 150 mg/kg single dose one hour before formalin; vs non-treated animals; 10 to 35 minutes after formalin (chronic phase); p<0.05 (FIG. 2)
Method: Evaluation of pain is based on the observed behavior of the animals after the formalin injection.
Formalin stock (Frutarom Ltd., Israel; cat. # 5551830; 3.4-3.8% formaldehyde content) was diluted into 2.5% formalin solution in saline. 25 μl of the 2.5% formalin solution was injected into the plantar surface of CD-1 mice foot using a syringe with a 29G needle. The animals' reaction, apparent as licking and lifting the paw off the ground, is noticed immediately after injection. Each of the treated animals and control naive animals injected only with formalin was monitored for a period of 40 min, through 5 minutes time segments (4-6 animals in a group).
Evaluation of pain was performed by recording the time the animal spent licking its paw. A computerized program was used for timing the total number of seconds each animal spent licking its paw during the preset period of 5 min. This step was repeated for up to 40 min (8 intervals of 5 min).

Sprague-Dawley (SD) rats = details: rats day 15 post-CCI operation, s.c. 150 mg/kg, vs vehicle (FIG. 3)
Method: Male, Sprague-Dawley (SD) rats, weighing around 200-250 grams, were anesthetized by i.p. injection of ketamine (50 mg/kg) and xylazine (10 mg/kg). The common sciatic nerve was exposed at the middle of the thigh of the hind right foot. Four ligatures were tied loosely around the nerve with a spacing of about 1 mm between them. The incision was closed by suturing the inner layers of the muscles with chromic gut suture, and the outer skin with silk suture. Five to seven days later the nociceptive threshold can be evaluated by quantifying sensitivity of the foot to mechanical stimuli or cold temperatures to assess allodynia.
The mechanical sensitivity of the animal foot is measured using the von Frey test [Kim and Chung (1992) Pain 50: 355-63]. An automated von Frey test was employed, in which a von Frey filament is applied to the plantar surface of the animal foot and the filament is pushed automatically at a preset rate of force/time increments into the plantar. Each measurement was repeated 2-3 times in each epsilateral and contralateral foot of the tested animals. The time lapsed from applying of pressure until withdrawal of the foot from the innocuous stimulus was measured in the treated animals and compared to the baseline values obtained for each animal prior to treatment.
As a control served CCI-operated animals injected with vehicle only.

## 8-Pentadecanyl phosphocholine
Male CD-1 mice; I.P., 100 mg/kg, 15 min post-injection
  Withdrawal latency (% of vehicle): 235% of vehicle
Male CD-1 mice; I.P., 100 mg/kg, 45 min post-injection
  Withdrawal latency (% of vehicle): 134% of vehicle
Male CD-1 mice; I.P., 100 mg/kg, 75 min post-injection
  Withdrawal latency (% of vehicle): 177% of vehicle
Male CD-1 mice; I.P., 100 mg/kg, 105 min post-injection
  Withdrawal latency (% of vehicle): 134% of vehicle
Male CD-1 mice; I.P., 100 mg/kg, 135 min post-injection
  Withdrawal latency (% of vehicle): 141% of vehicle
Male CD-1 mice; I.P., 100 mg/kg, 285 min post-injection
  Withdrawal latency (% of vehicle): 145% of vehicle
Male CD-1 mice; P.O., 50 mg/kg, 45 min post-administration
  Withdrawal latency (% of vehicle): 149% of vehicle
Male CD-1 mice; P.O., 50 mg/kg, 75 min post-administration
  Withdrawal latency (% of vehicle): 157% of vehicle
Male CD-1 mice; P.O., 50 mg/kg, 105 min post-administration
  Withdrawal latency (% of vehicle): 145% of vehicle
Male CD-1 mice; P.O., 50 mg/kg, 135 min post-administration
  Withdrawal latency (% of vehicle): 137% of vehicle
Male CD-1 mice; P.O., 50 mg/kg, 285 min post-administration
  Withdrawal latency (% of vehicle): 127% of vehicle
Male CD-1 mice; P.O., 50 mg/kg, 345 min post-administration
  Withdrawal latency (% of vehicle): 124% of vehicle
Male CD-1 mice; S.C., 25 mg/kg, 45 min post-injection
  Withdrawal latency (% of vehicle): 147% of vehicle
Male CD-1 mice; S.C., 25 mg/kg, 75 min post-injection
  Withdrawal latency (% of vehicle): 143% of vehicle
Male CD-1 mice; S.C., 25 mg/kg, 105 min post-injection
  Withdrawal latency (% of vehicle): 165% of vehicle
Male CD-1 mice; S.C., 25 mg/kg, 135 min post-injection
  Withdrawal latency (% of vehicle): 169% of vehicle
Male CD-1 mice; S.C., 25 mg/kg, 285 min post-injection
  Withdrawal latency (% of vehicle): 141% of vehicle
Male CD-1 mice; S.C., 25 mg/kg, 345 min post-injection
  Withdrawal latency (% of vehicle): 130% of vehicle
Male CD-1 mice; S.C., 150 mg/kg, 45 min post-injection
  Withdrawal latency (% of vehicle): 194% of vehicle
Male CD-1 mice; S.C., 150 mg/kg, 75 min post-injection
  Withdrawal latency (% of vehicle): 217% of vehicle
Male CD-1 mice; S.C., 150 mg/kg, 105 min post-injection
  Withdrawal latency (% of vehicle): 186% of vehicle
Male CD-1 mice; S.C., 150 mg/kg, 135 min post-injection
  Withdrawal latency (% of vehicle): 175% of vehicle
Male CD-1 mice; S.C., 150 mg/kg, 285 min post-injection
  Withdrawal latency (% of vehicle): 184% of vehicle
Male CD-1 mice; S.C., 150 mg/kg, 345 min post-injection
  Withdrawal latency (% of vehicle): 175% of vehicle
Male CD-1 mice; s.c., 150 mg/kg, 5-6 hours post injection
  increase in withdrawal latency: around 80%
Male CD-1 mice; tail flick
  potency ranking in the assay: most potent
Male CD-1 mice; tail flick, Table 1
  size of analgesic effect, ranking among tested compounds: largest analgesic effects
CD-1 mice
  time the animal spent licking its paw: significant less time licking their paw
Sprague-Dawley (SD) rats
  withdrawal threshold (mechanical allodynia, von Frey): increased withdrawal threshold
